{"source": "paper PMC6161602", "about": "“Synthesis and characterisation of (Z)-styrylbenzene derivatives as potential selective anticancer agents” (Journal of Enzyme Inhibition and Medicinal Chemistry, 2018)", "type_in_all_cases": "cell-based, human", "key": {"HepG2 hepatoma cell": {"tested_on": "HepG2 hepatoma cell", "experiment": "MTT cell growth inhibition assay, HepG-2", "description": "(§1) All human cell lines were used in this study. MGC-803 late-stage differentiation gastric cancer cell, A549 lung cancer cell, HepG2 hepatoma cell, AGS gastric cancer cell, BEL-7402 liver cancer cell, HCT-116 colorectal cancer cell, HeLa cervical cancer cell, SGC-7901 early differentiation gastric cancer cell, L-02 normal liver cell, MCF-7 breast cancer cell, and MCF-10A normal breast cell were initially purchased from American Type Culture Collection (ATCC, Manassas, VA, USA). RPMI-1640 media, Dulbecco’s modified Eagle’s medium (DMEM), and foetal bovine serum (FBS) were provided from Gibco Company (Grand Island, NY, USA). The cells were maintained in DMEM or RPMI-1640, supplemented with 10% FBS, 100 IU/mL penicillin and […] (Grand Island, NY, USA), and at 37 °C in a humidified atmosphere containing 5% CO2.\n(§2) Cells were plated in 96-well plates at a density of 30–40% to ensure exponential growth throughout the experimental period, and then allowed to adhere for 1 day[21]. Next, the cells were treated with four serial concentrations (1, 10, 50, and 100 µM) of each compound. Taxol, CA-4, and CA-4P (phosphorylated form of CA-4) were used as positive controls. After 48 h incubation, MTT solution was added to each well at a final concentration of 2 mg/mL, and incubated for an additional 4 h. Next, the MTT solution was removed and 150 µL of dimethyl sulphoxide (DMSO)/well was added (Sigma-Aldrich, St Louis, MO, USA). The plates were shaken vigorously at RT to ensure complete solubilisation, and absorption at 492 nm was determined.\n(§3) According to standard protocol, preliminary in vitro anti-proliferative activities of the synthesised compounds were evaluated by MTT assay, using nine human cancer cell lines (MGC-803, A549, HepG2, AGS, BEL-7402, HCT116, HeLa, SGC-7901, and MCF-7) and two normal human cell lines (L-02 and MCF-10A), and compared with those of CA-4, CA-4P, and taxol."}, "BEL-7402 cells [1]": {"tested_on": "BEL-7402 cells", "experiment": "MTT cell growth inhibition assay, BEL-7402", "settings": "Homo sapiens; MTT, 48 h incubation, Bel-7402", "description": "as §1, §2, §3"}, "L-02 normal liver cell": {"tested_on": "L-02 normal liver cell", "experiment": "MTT cell growth inhibition assay, L-02 (normal)", "settings": "Homo sapiens, 48 h incubation, L-02 normal cells", "description": "as §1, §2, §3"}, "[2]": {"tested_on": "SGC-7901 early differentiation gastric cancer cell", "experiment": "MTT cell growth inhibition assay, SGC-7901", "settings": "Homo sapiens, 48 h incubation", "description": "as §1, §2, §3"}, "[3]": {"tested_on": "MCF-10A normal breast cell", "experiment": "MTT cell growth inhibition assay, MCF-10A (normal)", "settings": "Homo sapiens, 48 h incubation, MCF-10A normal cells", "description": "as §1, §2, §3"}, "BEL-7402 cells [4]": {"tested_on": "BEL-7402 cells", "experiment": "Analysis of apoptosis by flow cytometry (Annexin V-FITC/PI)", "settings": "BEL-7402, 0.1 µM, 12 h; vehicle 4.7%", "method": "Apoptosis was detected using an apoptosis detection kit. BEL-7402 cells were plated in 6-well plates (5.0 × 10^5 cells/well) and incubated at 37 °C overnight. Exponentially growing cells were then incubated with 6h at either 0.01 or 0.1 µM, or taxol at 0.1 µM. Vehicle group was treated with 0.1% DMSO. Following 12 h of incubation, cells were analysed for apoptosis as previously described, using a FACSCalibur flow cytometer with Cell Quest software (Becton-Dickinson, Franklin Lakes, NJ, USA)."}, "BEL-7402 cells [5]": {"tested_on": "BEL-7402 cells", "experiment": "Transwell cell migration assay", "settings": "BEL-7402, transwell, 24 h, 0.1 or 0.5 µM", "method": "Quantitative cell migration was performed using 24-well Boyden chambers (Corning, NY, USA) as described. Briefly, transwells with 8-µm pore size filters were inserted into 24-well plates. RPMI-1640 (500 µL) containing 10% FBS was added to the lower chamber, and 100 µL of a serum-free cell suspension (1 × 10^5 cells) was placed in the upper chamber. The BEL-7402 cells were pre-treated with indicated concentrations of 6h, taxol, or DMSO. The plates were incubated at 37 °C with 5% CO2 for 24 h, and the cells on the upside were removed using cotton swaps. After several rinses, the cells adhering in the lower layer of insert were fixed with methanol and stained with 1× crystal violet solution. The number of migrated cells in nine randomly selected fields from triplicate chambers was counted in each experiment under a phase-contrast microscope at 200× magnification."}, "BEL-7402 cells [6]": {"tested_on": "BEL-7402 cells", "experiment": "Colony formation assay", "settings": "BEL-7402, exposure > 10 days, fitted from inhibition ratio of colony formation", "method": "A previously described colony formation assay was used[7] with slight modification. 1 × 10^4 BEL-7402 cells/well were seeded into 6-well plates and then stimulated with the indicated concentration of 6h, taxol, or DMSO. The plates were removed from incubation when colonies were large enough to count (>50 cells). Colonies were then fixed and stained with 1 × Giemsa solution, rinsed, allowed to dry, and counted. All the experiments were repeated independently at least three times. The LD50 value for 6h was determined using SigmaPlot II."}, "cyclin A": {"tested_on": "cyclin A", "experiment": "Western blotting, cyclin A", "settings": "BEL-7402, 12 h, immunoblot, dose-dependent", "method": "(§4) BEL-7402 cells were harvested in logarithmic growth phase and the adherent and floating cells were collected after 12 h of drug treatment. The collected cells were resuspended in cold RIPA buffer (100 mM NaCl, 100 mM Tris (pH7.4), 10% Triton X-100, 1 mM PMSF, pH7.5) with 0.1 µM leupetin protease inhibitor as well as 1 µg/mL pepstatin and cracked on ice for 30 min. Then according to the reference to did immunoblotting assay."}, "cyclin D1": {"tested_on": "cyclin D1", "experiment": "Western blotting, cyclin D1", "settings": "BEL-7402, 12 h, immunoblot, dose-dependent", "method": "as §4"}, "cyclin B1": {"tested_on": "cyclin B1", "experiment": "Western blotting, cyclin B1", "settings": "BEL-7402, 12 h, immunoblot", "method": "as §4"}}}
{"smiles": "COc1cc(/C(C#N)=C/c2ccc(C)cc2)cc(OC)c1OC", "note": "[Compound 6h, (Z)-3-(p-Tolyl)-2-(3,4,5-trimethoxyphenyl)acrylonitrile]", "values": [{"measurement": "IC50", "setting": "HepG2 hepatoma cell; Homo sapiens, HepG2, MTT, 48 h incubation, HepG-2", "result": "3.74 ± 1.73", "unit": "µM"}, {"measurement": "SI IC50 (L-02/HepG-2)", "setting": "HepG2 hepatoma cell; selectivity index, IC50 (L-02)/IC50 (HepG-2)", "result": ">26.7"}, {"measurement": "IC50", "setting": "BEL-7402 cells [1]", "result": "150 ± 30", "unit": "nM"}, {"measurement": "IC50", "setting": "L-02 normal liver cell", "result": "> 100", "unit": "µM"}, {"measurement": "IC50", "setting": "[2]", "result": "> 100", "unit": "µM"}, {"measurement": "IC50", "setting": "[3]", "result": "9.45 ± 5.25", "unit": "µM"}, {"measurement": "total apoptotic cells (early + late apoptotic cells)", "setting": "BEL-7402 cells [4]", "result": 10.2, "unit": "%"}, {"measurement": "migration ratio compared with the control group", "setting": "BEL-7402 cells [5]", "result": "markedly decreased"}, {"measurement": "LD50 (colony formation)", "setting": "BEL-7402 cells [6]", "result": "0.056 ± 0.0047", "unit": "µM"}, {"measurement": "expression of cyclin A compared with the vehicle group", "setting": "cyclin A", "result": "lower expression"}, {"measurement": "expression of cyclin D1 compared with the vehicle group", "setting": "cyclin D1", "result": "lower expression"}, {"measurement": "expression of cyclin B1 compared with vehicle or 0.1 µM of taxol", "setting": "cyclin B1", "result": "increased expression"}]}
